The target of assay [1] is T1, Serine racemase (Homo sapiens, UniProt Q9GZT4).
T1 sequence (Q9GZT4 whole entry): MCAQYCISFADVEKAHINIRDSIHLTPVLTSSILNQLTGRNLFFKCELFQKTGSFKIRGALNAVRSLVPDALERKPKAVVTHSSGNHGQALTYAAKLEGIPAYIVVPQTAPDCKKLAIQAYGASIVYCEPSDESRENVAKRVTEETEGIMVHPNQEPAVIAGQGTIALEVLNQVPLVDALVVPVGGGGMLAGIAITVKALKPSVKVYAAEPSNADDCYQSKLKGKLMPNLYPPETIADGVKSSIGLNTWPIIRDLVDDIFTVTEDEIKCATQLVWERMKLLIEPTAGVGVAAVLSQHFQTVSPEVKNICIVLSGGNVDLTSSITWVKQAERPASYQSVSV
The assay can be described thus: Inhibition of hexa-His-tagged purified human recombinant serine racemase expressed in Escherichia coli BL21 Codonplus (DE3)-RIL cells assessed as reduction in beta-elimination of L-serine at by spectrophotomtery.

In assay [2] the target is T2, Serine racemase (Homo sapiens) (UniProt Q9GZT4).
T2 sequence (whole entry): T1 sequence (Q9GZT4 whole entry)
The assay can be described thus: Inhibition of hexa-His-tagged purified human recombinant serine racemase expressed in Escherichia coli BL21 Codonplus (DE3)-RIL cells assessed as reduction in beta-elimination of L-serine at 5 mM by spectrophotomtery.

Assay [3] concerns the target T2, Serine racemase (Homo sapiens). As to conditions: 330 uM.
Description: Inhibition of hexa-His-tagged purified human recombinant serine racemase expressed in Escherichia coli BL21 Codonplus (DE3)-RIL cells assessed as reduction in beta-elimination of L-serine at 330 uM by spectrophotomtery
For assay [4], the target named is T1, Serine racemase. The assay can be described thus: Inhibition of human recombinant serine racemase expressed in Escherichia coli Rosetta 2 (DE3) cells using L-serine as substrate by horseradish peroxidase based couple assay.
The target in assay [5] is T2, Serine racemase (Homo sapiens). The assay can be described thus: Inhibition of hexa-His-tagged purified human recombinant serine racemase expressed in Escherichia coli BL21 Codonplus (DE3)-RIL cells assessed as reduction in beta-elimination of L-serine at 2.8 mM by spectrophotomtery.

The results in this text go back to ChEMBL document CHEMBL3616404, “Expanding the chemical space of human serine racemase inhibitors” (Bioorg Med Chem Lett, 2015).

Molecules are shown by their SMILES. Where only a bound is given, the exact number is not on record here.

Usually Ki stands for the dissociation constant of the complex between target and ligand, obtained from inhibition or displacement. As a reminder, the inhibition is the change of the read-out against control, counted positive when it falls. With `O=C(O)CC1(C(=O)O)CN2CCC1CC2` (stereo unspecified), the Ki on Serine racemase [1] was over 10000 µM. Further, in assay [2], the inhibition is 2%.

For `CN1C(=O)C(=CNC(CC(=O)O)C(=O)O)C(=O)N(C)C1=O` (stereo unspecified), on Serine racemase [1], the Ki came to 1700 µM. The inhibition in assay [2] is 66%.

For `O=C(O)CC(=O)O` [MALONIC ACID], the Ki stood at 66 µM at Serine racemase [1] and 59 µM on Serine racemase [4]. Besides, the inhibition in assay [3] is 76%.

`CC[C@H](NS(=O)(=O)c1ccc([N+](=O)[O-])cc1)C(=O)O`: the Ki at Serine racemase [1] came out at 1500 µM. For the same compound, in assay [2], the inhibition stood at 70%.

With `O=[N+]([O-])c1cccnc1SCC(O)CO` (stereo unspecified), in assay [5], the inhibition was 0%.

Take `O=C(O)CC(CC(=O)O)C(=O)O` [TRICARBALLYLIC ACID]: the inhibition in assay [5] was determined as 59%. In addition, the Ki at Serine racemase [1] came out at 1300 µM.

Turning to `O=C(O)NCS(=O)(=O)c1cccs1`, on Serine racemase [1], the Ki was determined as 1500 µM. Further, in assay [2], the inhibition was 70%.

As for `O=C(O)COCC(=O)Cc1cc(SCCO)cc([N+](=O)[O-])c1`, the inhibition in assay [5] was found to be 29%. The inhibition constant (Ki) on Serine racemase [1] stood at 4500 µM.
